The text below walks through data of ChEMBL document CHEMBL3045991, “Synthesis of new 2(1H)-quinoxalinone derivatives for antimicrobial and antiinflammatory evaluation” (Med Chem Res, 2009).

Series [1] deals with Rattus norvegicus. Put plainly: Gastrointestinal toxicity in Rattus norvegicus albino (rat) assessed as incidence of gastric ulceration at 0.9 mg/100 g body weight, po qd. It is filed as organism-based, Stomach. Particulars: in vivo.
Series [2] concerns Rattus norvegicus. Put plainly: Gastrointestinal toxicity in Rattus norvegicus albino (rat) assessed as ulcer index at 0.9 mg/100 g body weight, po qd. It is filed as organism-based. As to conditions: in vivo.
Series [3] relates to Rattus norvegicus. The series is described as follows: Anti-inflammatory activity in Rattus norvegicus albino (rat) assessed as reduction of carrageenan-induced paw edema thickness at 0.9 mg/100 g body weight, ip administered 1 hr before carrageenan-challenge measured after 4 hr (reference value: 0.88 +/- 0.03 mm). In kind it is functional.
Series [4] deals with Rattus norvegicus. The series is described as follows: Anti-inflammatory activity in Rattus norvegicus albino (rat) assessed as reduction of carrageenan-induced paw edema thickness at 0.9 mg/100 g body weight, ip administered 1 hr before carrageenan-challenge measured after 3 hr (reference value: 0.88 +/- 0.03 mm). In kind it is functional. (In general: In the carrageenan paw model, swelling and tenderness develop within hours.)

The subject of series [5] is Rattus norvegicus. Put plainly: Anti-inflammatory activity in Rattus norvegicus albino (rat) assessed as reduction of carrageenan-induced paw edema thickness at 0.9 mg/100 g body weight, ip administered 1 hr before carrageenan-challenge measured after 2 hr (reference value: 0.88 +/- 0.03 mm). In kind it is functional.
Series [6] deals with Rattus norvegicus. Put plainly: Anti-inflammatory activity in Rattus norvegicus albino (rat) assessed as reduction of carrageenan-induced paw edema thickness at 0.9 mg/100 g body weight, ip administered 1 hr before carrageenan-challenge measured after 1 hr (reference value: 0.77 +/- 0.02 mm). In kind it is functional.
Another series deals with Escherichia coli. The series is described as follows: Antibacterial activity against Escherichia coli at 10 mg/ml by cup-plate technique. It is filed as functional. As to conditions: read-out: DIZ.
The test system of the next series is Bacillus subtilis. Put plainly: Antibacterial activity against Bacillus subtilis at 10 mg/ml by cup-plate technique. It is filed as functional. As to conditions: read-out: DIZ.
A further series has as its system Staphylococcus aureus. Put plainly: Antibacterial activity against Staphylococcus aureus at 10 mg/ml by cup-plate technique. In kind it is functional. As to conditions: read-out: DIZ.

On to `CCn1c(S)nnc1Cc1nc2ccccc2[nH]c1=O`, for which the Activity with Rattus norvegicus [1] turned out to be 0%; with Rattus norvegicus [3], 0.67 mm; with Rattus norvegicus [4], 0.52 mm; in the series with Rattus norvegicus [5] it was 0.5 mm; with Rattus norvegicus [6], 0.5 mm. Besides, in the series with Rattus norvegicus [2], the UI was determined as 0.
For the molecule `O=C(Cc1nc2ccccc2[nH]c1=O)Nn1c(-c2ccccc2)csc1=S`, the Activity with Rattus norvegicus [1] was determined as 80%; with Rattus norvegicus [3], 0.52 mm; in the series on Rattus norvegicus [4] it was 0.55 mm; in the series on Rattus norvegicus [5], 0.55 mm; in the series on Rattus norvegicus [6], 0.57 mm. In addition, the UI in the series on Rattus norvegicus [2] stood at 240.
As for `O=c1[nH]c2ccccc2nc1Cc1nnc(S)n1-c1ccccc1`, the Activity with Rattus norvegicus [1] is recorded as 0%; with Rattus norvegicus [3] it was 0.47 mm; with Rattus norvegicus [4] it was 0.52 mm; with Rattus norvegicus [5], 0.55 mm; in the series with Rattus norvegicus [6], 0.55 mm. In addition, the UI with Rattus norvegicus [2] is recorded as 0.
With `O=C(Cc1nc2ccccc2[nH]c1=O)NNC(=S)Nc1ccccc1`, the figures for the zone of inhibition at 10000 µg/mL in the series with Escherichia coli, in the series with Bacillus subtilis and in the series with Staphylococcus aureus were 8 mm, 9 mm and 10 mm, respectively.
As to `COc1ccc2c(c1)c(CC(=O)O)c(C)n2C(=O)c1ccc(Cl)cc1` [INDOMETHACIN], in the series with Rattus norvegicus [1], the Activity came to 100%. In addition, the UI in the series with Rattus norvegicus [2] is listed as 500.
Take `Cc1ccc(-c2csc(=S)n2NC(=O)Cc2nc3ccccc3[nH]c2=O)cc1`: the Activity in the series on Rattus norvegicus [1] was determined as 0%; with Rattus norvegicus [3] it was 0.55 mm; with Rattus norvegicus [4], 0.6 mm; in the series with Rattus norvegicus [5], 0.67 mm; in the series with Rattus norvegicus [6], 0.7 mm. Besides, the UI in the series with Rattus norvegicus [2] amounted to 0.
As for `O=C(Cc1nc2ccccc2[nH]c1=O)Nn1c(-c2ccc(Cl)cc2)csc1=S`, the Activity is 0% in the series with Rattus norvegicus [1]; 0.45 mm in the series on Rattus norvegicus [3]; 0.47 mm in the series on Rattus norvegicus [4]; 0.5 mm in the series on Rattus norvegicus [5]; 0.55 mm in the series with Rattus norvegicus [6]. Besides, in the series with Rattus norvegicus [2], the UI is recorded as 0.
Turning to `C=CCNC(=S)NNC(=O)Cc1nc2ccccc2[nH]c1=O`, the values for the zone of inhibition at 10000 µg/mL in the series with Escherichia coli, with Bacillus subtilis and in the series with Staphylococcus aureus were 7 mm, 8 mm and 9 mm, respectively.
Consider `Nn1c(S)nnc1Cc1nc2ccccc2[nH]c1=O`, for which the Activity in the series with Rattus norvegicus [1] was found to be 0%; in the series on Rattus norvegicus [3], 0.62 mm; in the series on Rattus norvegicus [4], 0.6 mm; in the series with Rattus norvegicus [5] it was 0.62 mm; in the series on Rattus norvegicus [6] it was 0.67 mm. In addition, in the series on Rattus norvegicus [2], the UI was 0.
Regarding `O=C1NC2CCCCC2N=C1/C=N/Nc1ccc(Cl)cc1` (stereo not drawn), the zone of inhibition at 10000 µg/mL in the series on Escherichia coli is 6 mm; in the series with Bacillus subtilis, 15 mm; in the series on Staphylococcus aureus it was 16 mm.
For `O=C1NC2CCCCC2N=C1/C=N/Nc1ccccc1` (stereo not drawn), in that order: 4 mm, 8 mm and 6 mm.
As for `O=C(CC1=NC2CCCCC2NC1=O)NN1C(=O)c2ccccc2C1=O` (stereo not drawn), the zone of inhibition at 10000 µg/mL in the series with Escherichia coli is 6 mm.
As for `O=C1NC2CCCCC2N=C1/C=N/Nc1ccc(F)cc1` (stereo not drawn), the values for the zone of inhibition at 10000 µg/mL in the series on Escherichia coli, in the series on Bacillus subtilis and in the series with Staphylococcus aureus were 7 mm, 17 mm and 16 mm, respectively.
As for `O=C(CC1=NC2CCCCC2NC1=O)NNC(=S)Nc1ccccc1` (stereo not drawn), the zone of inhibition at 10000 µg/mL was 12 mm in the series on Escherichia coli, 18 mm in the series with Bacillus subtilis and 16 mm with Staphylococcus aureus.
For `Cc1ccc(N/N=C/C2=NC3CCCCC3NC2=O)cc1` (stereo not drawn), the figures for the zone of inhibition at 10000 µg/mL in the series with Escherichia coli, in the series on Bacillus subtilis and in the series on Staphylococcus aureus were 5 mm, 7 mm and 6 mm, respectively.
In the same order, the values of `C=CCNC(=S)NNC(=O)CC1=NC2CCCCC2NC1=O` (stereo not drawn) are 9 mm, 11 mm and 12 mm.
On to `O=C1NC2CCCCC2N=C1/C=N/Nc1ccc(Br)cc1` (stereo not drawn), for which the zone of inhibition at 10000 µg/mL came out at 8 mm in the series with Escherichia coli, 11 mm in the series on Bacillus subtilis and 13 mm in the series with Staphylococcus aureus.
For `Cc1ccc(-c2cc(C(F)(F)F)nn2-c2ccc(S(N)(=O)=O)cc2)cc1` [CELECOXIB], the Activity in the series on Rattus norvegicus [1] was 0%; with Rattus norvegicus [3], 0.5 mm; in the series with Rattus norvegicus [4], 0.45 mm; in the series on Rattus norvegicus [5], 0.42 mm; in the series with Rattus norvegicus [6] it was 0.45 mm. Moreover, the UI in the series on Rattus norvegicus [2] is 0.
Regarding `O=C(O)c1cn(C2CC2)c2cc(N3CCNCC3)c(F)cc2c1=O` [CIPROFLOXACIN], the zone of inhibition at 10000 µg/mL in the series on Escherichia coli is 12 mm; with Bacillus subtilis, 19 mm; with Staphylococcus aureus it was 17 mm.
Consider `O=c1[nH]c2ccccc2nc1Cc1nnc(S)o1`, for which the Activity was found to be 80% in the series on Rattus norvegicus [1]; 0.52 mm in the series with Rattus norvegicus [3]; 0.6 mm in the series with Rattus norvegicus [4]; 0.52 mm in the series with Rattus norvegicus [5]; 0.57 mm with Rattus norvegicus [6]. Besides, the UI in the series on Rattus norvegicus [2] is reported as 240. Moreover, the zone of inhibition at 10000 µg/mL amounted to 10 mm with Bacillus subtilis and 11 mm in the series on Staphylococcus aureus.
